Experimental data as given in patent US20020115703A1, “Prevention of development of dyskinesias” (priority 2000, published 2002).

Test system: locomotor hyperactivity induced by repeated administration of D-amphetamine
Assay: Locomotor (ambulatory) activity after repeated D-amphetamine administration (behavioral sensitization), photobeam activity system
Type: in vivo, mice
Method: The effects of atipamezole on the locomotor hyperactivity induced by repeated administration of D-amphetamine were studied in male mice.
Experiments were performed with C57BL/ 6J strain male mice from Jackson Laboratories. Mice were transferred to the laboratory at least 2 weeks prior to use. The mice were from 8 to 20 weeks of age at the beginning of an experiment. Groups of 10 mice were housed in standard polypropylene cages (38×22×15 cm) with free access to standard certified pelleted food (RM1 Maintenance Expanded SQC; Special Diet Services, Essex, UK) and water. Ambient temperature was 22±1 C.°, and a 12:12 h light dark cycle was maintained with lights on at 6 A.M. All experiments were carried out between 7 A.M. 1 and 5 P.M. The animal care was performed in accordance with International Council for Laboratory Animal Science (ICLAS) guidelines.
D-Amphetamine sulphate (Sigma, St. Louis, Mo., U.S.A.) and atipamezole HCl (Orion Corporation, Orion Pharma, Turku, Finland) were dissolved in saline (0.9% NaCl) and administered subcutaneously (s.c.) in a 5 ml kg volume.
The locomotor activity of the mice was measured in transparent standard polypropylene animal cages (38×22×15 cm) with transparent covers and aspen bedding on the floors. Test cages were placed in the middle of the photobeam frame system (Photobeam Activity System PAS, Cage Rack, San Diego Instruments, San Diego, Calif.). A computer control unit registered the interruptions of photobeams from 16 individual cages. Three different types of movements were monitored: 1) ambulations (large horizontal movements), 2) fine movements (smaller horizontal movements), and 3) rearings (vertical movements). Locomotor activity was measured at 5-min intervals for 2 h immediately after D-amphetamine or saline administrations.
D-amphetamine was administered subcutaneously (s.c.) at a dose of 2 mg/kg. Atipamezole was administered s.c. at a dose of 1 mg/kg 20 min before locomotor activity measurement.
In the chronic treatment group, mice were administered the dose during eight days to elicit provoked locomotor hyperactivity to D-amphetamine and the effect of the atipamezole to the locomotor activity. Mice groups in the chronic treatment schedule were saline, saline-amphetamine, amphetamine, atipamezole and atipamezole-amphetamine. A day before experiment, mice were habituated to the test environment. Test groups with different drug treatments were administrated during four consecutive days. At days five and six, there were no drug administrations nor motor activity testing. At days seven and eight, the produced locomotor hyperactivity and effect of a single exposure of D-amphetamine (saline-amphetamine-group) were analysed. (Table 1).
At day nine, the effect of different atipamezole and amphetamine administrations to the locomotor activity on the chronic treatment groups were analysed. Treatments included saline, 1 mg/kg atipamezole, 2 mg/kg D-amphetamine, 0,3 mg/kg atipamezole- 2 mg/kg D-amphetamine and 1 mg/kg atipamezole- 2 mg/kg D-amphetamine. Chronic treatment groups were saline-, atipamezole-, amphetamine- and atipamezole-amphetamine groups. Chronic groups were treated following the schedule in Table 2.
All data are presented as mean ±SEM. Statistical analysis were performed using SPSS 9.0 for Windows (SPSS, Chicago, Ill.). Separate repeated measure analyses of variance (ANOVA) were performed on each variable for each experiment grouped on time and treatment group. Results were analysed separately, because data were collected in separate experiments with different study design. When significance (P<0.05) between treatment groups was found, comparisons at each time point (date or min) were analysed by using LSD post-hoc test.

Structure (SMILES) | ambulatory activity (2-h overall counts) during repeated administration (D-amphetamine 2 mg/kg s.c., six repeated administrations over days 1-8, compared to saline group, C57BL/6J male mice, FIG. 1) | ambulatory sensitization at Day 9 (chronic amphetamine group, repeated D-amphetamine 2 mg/kg (P<0.001), FIG. 2) | locomotor activity at Day 9, single D-amphetamine challenge (chronic saline group, D-amphetamine 2 mg/kg at Day 9 (P<0.001 vs saline), FIG. 2) | D-amphetamine induced locomotion at Day 9, chronic atipamezole-amphetamine group (atipamezole 1 mg/kg 20 min before D-amphetamine 2 mg/kg days 1-9, vs amphetamine-amphetamine group (P<0.001), FIG. 2) | D-amphetamine-induced locomotion, chronic atipamezole pre-treatment (atipamezole 1 mg/kg s.c. 20 min before D-amphetamine 2 mg/kg s.c. over days 1-8, vs amphetamine-amphetamine group, Day 2 P<0.05, Days 3-8 P<0.001, FIG. 1) | locomotor activity, atipamezole pre-treatment before saline challenge (atipamezole 1 mg/kg s.c. daily for six days, atipamezole-saline vs saline group at Day 8 (P=0.43), FIG. 1) | D-amphetamine-induced locomotor hyperactivity at Day 9 (expression of sensitization) (chronic amphetamine group, atipamezole 0.3 mg/kg 20 min before D-amphetamine 2 mg/kg at Day 9 (P=0.005), FIG. 2) | D-amphetamine-induced locomotor hyperactivity at Day 9 (expression of sensitization) (chronic amphetamine group, atipamezole 1 mg/kg 20 min before D-amphetamine 2 mg/kg at Day 9 (P<0.001), FIG. 2) | locomotor activity at Day 9 after chronic atipamezole (chronic atipamezole group (1 mg/kg days 1-8), before saline and D-amphetamine challenge at Day 9, FIG. 2) | development of sensitisation: locomotion at Day 9 with D-amphetamine only (chronic atipamezole-amphetamine group given only D-amphetamine 2 mg/kg at Day 9, vs amphetamine-amphetamine group (P=0.026), FIG. 2) | locomotor activity at Day 9, atipamezole before acute D-amphetamine (chronic saline group, atipamezole 0.3 mg/kg 20 min before D-amphetamine 2 mg/kg, compared to D-amphetamine alone (P=0.016), FIG. 2) | locomotor activity at Day 9, atipamezole before acute D-amphetamine (chronic saline group, atipamezole 1 mg/kg 20 min before D-amphetamine 2 mg/kg, compared to D-amphetamine alone (P=0.364), FIG. 2) | total ambulatory activity counts at Day 9, atipamezole alone (chronic saline group, atipamezole 1 mg/kg 20 min before saline at Day 9 (P=0.81), FIG. 2) | development and expression of sensitization (motor overactivity), overall finding (given chronically in combination with D-amphetamine, in mice)
C[C@H](N)Cc1ccccc1 [D-amphetamine] | progressive enhance in ambulatory activity | developed strong ambulatory sensitization | significantly enhanced locomotor activity |  |  |  |  |  |  |  |  |  |  | 
CCC1(c2cnc[nH]2)Cc2ccccc2C1 [atipamezole, 4-(2-ethyl-2,3-dihydro-1H-inden-2-y1)-1H-imidazole] |  |  |  | decreased significantly D-amphetamine induced locomotion | decreased significantly D-amphetamine-induced locomotion | not a statistically significant difference | clearly attenuated the D-amphetamine-induced locomotor hyperactivity | clearly attenuated the D-amphetamine-induced locomotor hyperactivity | the elevation was not statistically significant | true reduction in the development of sensitisation | amplified locomotor activity | had no effect | did not alter total ambulatory activity counts | reduces the development and expression of sensitization
